Measured values: publication PMC8355244, “A fragment-based approach identifies an allosteric pocket that impacts malate dehydrogenase activity” (Communications Biology, 2021)
Where “and” joins values, the source holds several entries; their conditions need not be identical. Equal entries are not always repeated. Where two headings read alike, the source gives them in different places.

Tests used:
Format in all cases: biochemical
PfMDH [1] = target: T1, PfMDH (Plasmodium falciparum, UniProt Q6VVP7); assay: Kinetics experiment with varying L-malate, substrate inhibition model; parameters: key to Ki (best-fit value, substrate inhibition model): Ki in mM; key to Vmax (best-fit value): Vmax in U/mg; 4PA kinetics raw data (rate): unit not given here; conditions: for Ki (best-fit value, substrate inhibition model) / Vmax (best-fit value): pH 10.2, Supplementary Table 6; for 4PA kinetics raw data (rate): replicates
T1 construct: The full-length WT PfMDH gene was cloned into pETM-13; made in house; host or cells: E. coli Rosetta 2 (DE3) pLysS

WT PfMDH = target: T2, WT PfMDH (Plasmodium falciparum, UniProt Q6VVP7); assay: 4PA dose-response inhibition of PfMDH; conditions: for Slope / Response (Delta Abs[340 nm]/min): replicates
T2 construct: The full-length WT PfMDH gene was cloned into pETM-13; made in house; host or cells: E. coli Rosetta 2 (DE3) pLysS
Method: (§1) The oxidation of malate to oxaloacetate was assayed spectrophotometrically in flat-bottomed Corning 96-well microplates in a total volume of 250.0 µl in 50 mM glycine buffer pH 10.2[24] with an additional 400 mM NaCl for protein stability. The increase of absorbance at 340 nm was recorded in kinetic mode using a Tecan Spark multimode microplate reader at 298 K. A mastermix of 50 mM NAD+ and 44 μM PfMDH was used for both the screening and kinetics experiments. The final concentration of protein and cofactor were […], respectively. Positive control groups were set (absence of compound) in the same plate as the treated group. The absorbance from the background noise was subtracted from the data and then a linear regression model was employed in order to get the line slope from the first 5 min of the reaction. The percentage of enzymatic activity has been calculated as described by Eq. (1)1 enzymeactivity(%)=slopetreated/slopepositivecontrol*100
While the fragment initially discovered was 4-(3,4-difluorophenyl) thiazol-2-amine, we decided to perform enzymatic and kinetic assays using a similar substructure 4-phenylthiazol-2-amine. 2× fold dilutions from a 200 mM stock solution of the compound in 100% DMSO was prepared for dose–response experiments. 3.3 µL of compound (DMSO in the case of positive control) were mixed with 233.9 µL mastermix of WT PfMDH previously incubated with 3 mM NAD + using a multichannel pipette. The final conditions tested were a maximum of 2.5 mM of 4PA at 1.32% (v/v) final DMSO concentration. The microplate was incubated for 15 min at 25.35 °C and the reaction started with the addition of 13.0 µL of 5 mM L-malate.

PfMDH [2] = target: T1, PfMDH; assay: Kinetics experiment with varying L-malate, substrate inhibition model; parameters: unit not given here; conditions: malate 5 mM, replicates
Method: as §1
Kinetics experiments were performed by mixing 1.3 µL of compound stock solutions from 12.5 and 25 mM of 4PA in 100% DMSO with 223.8 µL mastermix of PfMDH previously incubated in ice with 3 mM NAD+ for 30 min. […] Kinetic constants Km (mM) and Vmax (U * mg^−^1) and Ki (mM) were quantified with GraphPad Prism version 8.0 according to the substrate inhibition Eq. (2)[52].2 Y=Vmax*X/(Km+X^*(1+X/Ki))

T2 sequence (Q6VVP7 entry or part of it): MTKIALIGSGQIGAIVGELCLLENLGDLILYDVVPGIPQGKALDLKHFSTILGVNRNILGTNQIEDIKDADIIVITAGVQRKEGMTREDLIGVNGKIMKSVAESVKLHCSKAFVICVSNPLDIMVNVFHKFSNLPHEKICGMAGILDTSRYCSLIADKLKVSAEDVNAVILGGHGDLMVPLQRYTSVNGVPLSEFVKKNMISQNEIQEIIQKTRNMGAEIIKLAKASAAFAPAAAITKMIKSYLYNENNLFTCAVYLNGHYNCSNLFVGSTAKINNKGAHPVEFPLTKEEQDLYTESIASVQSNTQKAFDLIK
T1 sequence (Q6VVP7 entry or part of it): as above

Nc1nc(-c2ccccc2)cs1 [4PA, 4-phenylthiazol-2-amine]
Ki (best-fit value, substrate inhibition model) (PfMDH [1]; 63 μM): 63.00 ± 31.8
Vmax (best-fit value) (PfMDH [1]; 63 μM): 645.7 ± 29.0
Ki (best-fit value, substrate inhibition model) (PfMDH [1]; 125 μM): 72.93 ± 41.9
Vmax (best-fit value) (PfMDH [1]; 125 μM): 630.2 ± 28.5
4PA kinetics raw data (rate) (PfMDH [1]; PfMDH + 63 uM, malate 0.078125 mM): 0.0098 and 0.01006 and 0.00834
4PA kinetics raw data (rate) (PfMDH [1]; PfMDH + 63 uM, malate 0.15625 mM): 0.01266 and 0.01336 and 0.01325
4PA kinetics raw data (rate) (PfMDH [1]; PfMDH + 63 uM, malate 0.3125 mM): 0.01621 and 0.01654 and 0.01602
4PA kinetics raw data (rate) (PfMDH [1]; PfMDH + 63 uM, malate 0.625 mM): 0.02019 and 0.02009 and 0.02113
4PA kinetics raw data (rate) (PfMDH [1]; PfMDH + 63 uM, malate 1.25 mM): 0.02141 and 0.02369 and 0.02088
4PA kinetics raw data (rate) (PfMDH [1]; PfMDH + 63 uM, malate 2.5 mM): 0.02622 and 0.02453 and 0.02721
4PA kinetics raw data (rate) (PfMDH [1]; PfMDH + 63 uM, malate 10 mM): 0.02549 and 0.02349 and 0.01973
4PA kinetics raw data (rate) (PfMDH [1]; PfMDH + 125 uM, malate 0.078125 mM): 0.00804 and 0.006868 and 0.007099
4PA kinetics raw data (rate) (PfMDH [1]; PfMDH + 125 uM, malate 0.15625 mM): 0.01089 and 0.01117 and 0.0101
4PA kinetics raw data (rate) (PfMDH [1]; PfMDH + 125 uM, malate 0.3125 mM): 0.01419 and 0.01394 and 0.01404
4PA kinetics raw data (rate) (PfMDH [1]; PfMDH + 125 uM, malate 0.625 mM): 0.01376 and 0.01789 and 0.01385
4PA kinetics raw data (rate) (PfMDH [1]; PfMDH + 125 uM, malate 1.25 mM): 0.02005 and 0.02063 and 0.0175
4PA kinetics raw data (rate) (PfMDH [1]; PfMDH + 125 uM, malate 2.5 mM): 0.02038 and 0.02019 and 0.02077
4PA kinetics raw data (rate) (PfMDH [1]; PfMDH + 125 uM, malate 10 mM): 0.01925 and 0.01826 and 0.01944
Ki change vs control (PfMDH [1]; in presence of 63 μM compound): 5 fold
Ki change vs control (PfMDH [1]; in presence of 125 μM compound): 6 fold
Vmax (PfMDH [1]; in the presence of 63 μM compound, control 967.8 ± 99.0): 645.7 ± 29.0 U mg^−1
Vmax (PfMDH [1]; in the presence of 125 μM compound): 630.2 ± 28.5 U mg^−1
mechanism of the inhibition (PfMDH [1]; vs malate): non-competitive
IC50 (WT PfMDH; 5 mM L-malate, 3 mM NAD+, pH 10.2, read-out: IC50): 1120 ± 30 µM
Slope (WT PfMDH; Dose 1e-6 M): 0.04587 and 0.04675 and 0.04799
Slope (WT PfMDH; Dose 0.000237161 M): 0.03425 and 0.02991 and 0.02497
Slope (WT PfMDH; Dose 0.000332026 M): 0.03311 and 0.03278 and 0.02964
Slope (WT PfMDH; Dose 0.000464836 M): 0.03179 and 0.02952 and 0.02569
Slope (WT PfMDH; Dose 0.000650771 M): 0.0287 and 0.02683 and 0.02888
Slope (WT PfMDH; Dose 0.000911079 M): 0.02984 and 0.02623 and 0.02457
Slope (WT PfMDH; Dose 0.00127551 M): 0.01897 and 0.02591 and 0.01942
Slope (WT PfMDH; Dose 0.00178571 M): 0.01091 and 0.01205 and 0.0179
Slope (WT PfMDH; Dose 0.0025 M): 0.01337 and 0.01172 and 0.009871
Response (Delta Abs[340 nm]/min) (WT PfMDH; Dose 1.00E-06 M): 4.59E-02 Delta Abs[340 nm]/min and 4.67E-02 Delta Abs[340 nm]/min and 4.80E-02 Delta Abs[340 nm]/min
Response (Delta Abs[340 nm]/min) (WT PfMDH; Dose 1.28E-03 M): 1.90E-02 Delta Abs[340 nm]/min and 2.59E-02 Delta Abs[340 nm]/min and 1.94E-02 Delta Abs[340 nm]/min
Response (Delta Abs[340 nm]/min) (WT PfMDH; Dose 1.79E-03 M): 1.09E-02 Delta Abs[340 nm]/min and 1.20E-02 Delta Abs[340 nm]/min and 1.79E-02 Delta Abs[340 nm]/min
Response (Delta Abs[340 nm]/min) (WT PfMDH; Dose 2.37E-04 M): 3.43E-02 Delta Abs[340 nm]/min and 2.99E-02 Delta Abs[340 nm]/min and 2.50E-02 Delta Abs[340 nm]/min
Response (Delta Abs[340 nm]/min) (WT PfMDH; Dose 2.50E-03 M): 1.34E-02 Delta Abs[340 nm]/min and 1.17E-02 Delta Abs[340 nm]/min and 9.87E-03 Delta Abs[340 nm]/min
Response (Delta Abs[340 nm]/min) (WT PfMDH; Dose 3.32E-04 M): 3.31E-02 Delta Abs[340 nm]/min and 3.28E-02 Delta Abs[340 nm]/min and 2.96E-02 Delta Abs[340 nm]/min
Response (Delta Abs[340 nm]/min) (WT PfMDH; Dose 4.65E-04 M): 3.18E-02 Delta Abs[340 nm]/min and 2.95E-02 Delta Abs[340 nm]/min and 2.57E-02 Delta Abs[340 nm]/min
Response (Delta Abs[340 nm]/min) (WT PfMDH; Dose 6.51E-04 M): 2.87E-02 Delta Abs[340 nm]/min and 2.68E-02 Delta Abs[340 nm]/min and 2.89E-02 Delta Abs[340 nm]/min
Response (Delta Abs[340 nm]/min) (WT PfMDH; Dose 9.11E-04 M): 2.98E-02 Delta Abs[340 nm]/min and 2.62E-02 Delta Abs[340 nm]/min and 2.46E-02 Delta Abs[340 nm]/min
LogIC50 (best-fit value) (WT PfMDH; log(inhibitor) vs. normalized response, variable slope): -2.934 and -2.922
IC50 (WT PfMDH; log(inhibitor) vs. normalized response, variable slope, read-out: IC50 (best-fit value)): 1160 µM and 1200 µM
4PA kinetics raw data (rate) (PfMDH [2]; PfMDH + 63 uM): 0.0233 and 0.02526 and 0.02238
4PA kinetics raw data (rate) (PfMDH [2]; PfMDH + 125 uM): 0.01868 and 0.01853 and 0.02184
